Experimental findings from US20260232554A1, “ORAL CARE AGENT WITH DIMETHYLGLYCINE” (Dr. Kurt Wolff GmbH & Co. KG, priority 2023, published 2026) are described below.

Holding throughout (assay type): cell-based, human
The test system of assay [1] is HaCaT cells. Description: MTT assay, cell viability. The settings on record: after 48 h and 72 h of cultivation, versus control without DMG. How it is done:
(§1) As part of an in vitro study, the effect of sodium dimethylglycinate was investigated in a cell culture model with human keratin-forming keratinocyte cells. For this purpose, HaCaT cells were cultured for 1, 3, 5 and 7 days in DMEM medium (including fetal calf serum and an antibiotic-antimycotic mix) and the viability, proliferation and migration of the cells were determined using suitable measurement methods and the expression of growth factors relevant for cell growth was determined.
For this measurement, a so-called MTT assay was used to determine cellular metabolic activity as an indicator of cell viability and cytotoxicity. This colorimetric assay is based on the reduction of a yellow tetrazolium salt (3-(4,5-dimethylthiazol-2-yl)-2,5-diphenyltetrazolium bromide or MTT) to purple formazan crystals by metabolically active cells.
Human epidermal keratinocyte cells (HaCaT) were seeded in a 96-well plate at a cell density of 5,000 cells/well and cultured in medium (DMEM with 10% FBS, 1% penicillin-streptomycin, 0.5% fungizone). On the next day and after a further 24 h, 48 h and 72 h of cultivation at 37° C. and 5 vol. % CO2, the cell culture medium without (control) or with the respective concentrations of sodium dimethylglycinate (DMG) already contained was changed. […]

Assay [2] concerns HaCaT cells. In words: CyQUANT assay, cell proliferation. The settings on record: after 48 h and 72 h of cultivation, versus control without DMG. How it is done:
as §1
A so-called CyQUANT assay was used to measure proliferation. In this fluorescence-based assay, the fluorescent dye used binds to DNA (deoxyribonucleic acid), whereby the content of cellular DNA is a direct measure of the number of cells within a sample.
Human epidermal keratinocyte cells (HaCaT) were seeded in a 96-well plate at a cell density of 5,000 cells/well and cultured in medium (DMEM with 10% FBS, 1% penicillin-streptomycin, 0.5% fungizone). On the next day and after a further 24 h, 48 h and 72 h of cultivation at 37° C. and 5 vol. % CO2, the cell culture medium without (control) or with the respective concentrations of active substance already contained was changed. […]

The subject of assay [3] is HaCaT cells. In words: wound healing assay, migration. The conditions noted are these: images after 16 h, 20 h and 24 h, different DMG concentrations, versus control without DMG. How it is done:
as §1
A so-called wound healing assay was used to measure migration, based on previously published studies in T. Kawabata, T. Otsuka, K. Fujita, G. Sakai, R. Matsushima-Nishiwaki, O. Kozawa, H. Tokuda, International journal of molecular medicine 2018, 42, 3149-3156. The principle is based on measuring the migration of cells to a not yet colonized cultivation surface over time. For this purpose, 20,000 cells each were seeded into two adjacent wells or cavities separated by a silicone insert (with standardized width) and cultivated in medium (DMEM with 5% FBS, 1% penicillin-streptomycin, 0.5% fungizone) for 48 h at 37° C. and 5 vol % CO2. The plastic insert was then removed (“creation of the wound”) and the migration of the cells was documented by determining the cultivation surface not colonized with cells over time using images. […]

The subject of assay [4] is VEGF. In words: VEGF gene expression by qRT-PCR. The settings on record: HaCaT; after 24 h of cultivation; versus control without DMG. As to the method: VEGF (vascular endothelial growth factor) promotes the growth and formation of new blood and lymph vessels. Gene expression was measured using a standard method known as quantitative real-time PCR (qRT-PCR).
Human epidermal keratinocyte cells (HaCaT) were seeded in a 6-well plate at a cell density of 140,000 cells/well and cultured in medium (DMEM with 10% FBS, 1% penicillin-streptomycin, 0.5% fungizone) at 37° C. and 5 vol % CO2. On the next day, the cell culture medium without (control) or with the respective concentrations of active substance already contained was changed and the cells were harvested after 24 hours. Gene expression was measured using qRT-PCR based on previously published studies in B. V. Diaz, M.-C. Lenoir, A. Ladoux, C. Frelin, M. Demarchez, S. Michel, Journal of Biological Chemistry 2000, 275, 642-650.
A general note: Real-time PCR tracks product formation cycle by cycle.

The subject of assay [5] is Interleukin-6 (IL-6). In words: IL-6 gene expression by qRT-PCR after cytokine-induced inflammation. The conditions noted are these: HaCaT; 25 ng/ml TNFα and 25 ng/ml IFNγ; DMG 0.005%-0.00005%; 24 h; versus positive control of inflammation induction. How it is done: Interleukin-6 (IL-6) is a peptide hormone of the immune system from the group of pro-inflammatory interleukins and plays a key role in the non-specific, innate immune response. Gene expression was measured using a standard method known as quantitative real-time PCR (qRT-PCR).
Human epidermal keratinocyte cells (HaCaT) were seeded in a 6-well plate at a cell density of 140,000 cells/well and cultured in medium (DMEM with 10% FBS, 1% penicillin-streptomycin, 0.5% fungizone) at 37° C. and 5 vol % CO2. On the next day, cytokine treatment (25 ng/ml tumor necrosis factor-alpha (TNFα) and 25 ng/ml interferon-gamma (IFNγ)) was used to induce cell inflammation. […] with the different DMG drug concentrations (inflammation induction+DMG 0.005%−0.00005%) or without DMG (positive control of inflammation induction). In parallel, cells were treated without any treatment (control) or only with the different DMG drug concentrations (DMG 0.005%−0.00005%) and the cells were harvested after 24 h for gene expression analysis. Gene expression was measured using qRT-PCR based on previously published studies in B. V. Diaz, M.-C. Lenoir, A. Ladoux, C. Frelin, M. Démarchez, S. Michel, Journal of Biological Chemistry 2000, 275, 642-650.

Turning to `CN(C)CC(=O)[O-].[Na+]` [DMG, sodium dimethylglycinate], in assay [1], the “cell viability (MTT, absorption normalized to control at 24 h)” value is reported as “clear increase”. Further, in assay [2], the “cell proliferation (CyQUANT, fluorescence normalized to control at 24 h)” value is “clear increase”. The “migration or wound closure” value in assay [3] was “significantly faster”. For the same compound, the “relative gene expression of VEGF (normalized to GAPDH)” value in assay [4] is “significant increase”. The “expression of interleukin-6 induced by cytokine treatment” value in assay [5] is on record as “dose-dependently reduced”.
